Measurements published in patent US9365551B2, “2-(benzyloxy) benzamides as LRRK2 kinase inhibitors” (Glaxo Group Limited, priority 2010, dated 2016).

Legend:
[1] = target: T1, 6His-Tev-LRRK2 (1326-2527) (Homo sapiens, UniProt Q5S007); assay: LRRK2 AlphaScreen desensitised protein substrate assay; format: biochemical; conditions: mean pIC50 of multiple test results
T1 construct: A LRRK2 cDNA encoding residues 1326-2527 was received from Dundee University; made in house; host or cells: Spodoptera frugiperda (Sf9) insect cells, baculovirus (pFB-HTb)
T1 sequence (Q5S007 1326-2527): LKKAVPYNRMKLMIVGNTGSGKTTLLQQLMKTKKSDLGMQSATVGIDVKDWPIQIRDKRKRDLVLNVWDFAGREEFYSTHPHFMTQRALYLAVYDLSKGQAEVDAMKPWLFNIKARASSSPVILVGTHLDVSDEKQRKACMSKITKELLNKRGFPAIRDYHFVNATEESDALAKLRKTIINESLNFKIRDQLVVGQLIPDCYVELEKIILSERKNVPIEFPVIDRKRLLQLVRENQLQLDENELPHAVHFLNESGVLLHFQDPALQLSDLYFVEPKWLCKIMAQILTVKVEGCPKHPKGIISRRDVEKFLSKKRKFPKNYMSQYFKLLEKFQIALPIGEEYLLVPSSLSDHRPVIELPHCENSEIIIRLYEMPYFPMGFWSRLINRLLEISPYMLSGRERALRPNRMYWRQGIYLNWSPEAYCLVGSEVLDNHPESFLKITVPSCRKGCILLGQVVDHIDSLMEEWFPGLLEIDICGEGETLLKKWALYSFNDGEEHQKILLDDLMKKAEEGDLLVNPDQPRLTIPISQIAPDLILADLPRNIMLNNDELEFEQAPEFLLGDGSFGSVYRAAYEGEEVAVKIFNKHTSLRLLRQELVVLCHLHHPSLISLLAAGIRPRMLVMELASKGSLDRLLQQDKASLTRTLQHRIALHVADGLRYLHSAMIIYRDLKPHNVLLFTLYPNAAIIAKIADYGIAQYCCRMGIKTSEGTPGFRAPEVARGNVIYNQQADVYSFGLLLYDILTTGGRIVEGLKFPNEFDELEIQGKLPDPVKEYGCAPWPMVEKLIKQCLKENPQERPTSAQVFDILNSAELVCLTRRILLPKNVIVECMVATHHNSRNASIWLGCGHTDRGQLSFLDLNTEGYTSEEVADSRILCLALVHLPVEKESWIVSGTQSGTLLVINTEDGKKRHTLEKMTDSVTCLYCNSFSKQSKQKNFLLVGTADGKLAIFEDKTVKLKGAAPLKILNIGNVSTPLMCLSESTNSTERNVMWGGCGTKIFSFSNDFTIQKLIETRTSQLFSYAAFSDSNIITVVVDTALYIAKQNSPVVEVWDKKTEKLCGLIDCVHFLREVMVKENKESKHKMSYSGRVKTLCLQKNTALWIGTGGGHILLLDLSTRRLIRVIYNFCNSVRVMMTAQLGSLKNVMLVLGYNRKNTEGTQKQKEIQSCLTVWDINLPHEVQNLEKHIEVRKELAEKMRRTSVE
Method: (§1) Compounds of formula (I) may be tested for in vitro kinase activity in accordance with the following assays, using the non natural, in vitro, substrates moesin and the Longer Biotin-LRRKtide. Moesin and a shorter version of the peptide were identified as substrates in Jaleel et al. (2007, Biochem J, 405: 307-317).
(§2) b) 3 μl enzyme solution (80 nM purified recombinant 6His-Tev-LRRK2 (1326-2527) in assay buffer: 50 mM Hepes (pH 7.2), 10 mM MgCl2, 150 mM NaCl, 5% glycerol, 0.0025% triton X-100 and 1 mM DTT) is added to certain wells. 3 μl assay buffer is added to certain wells as a 100% inhibition (no enzyme) control. c) After incubation at room temperature for 30 minutes, 3 μl substrate solution (2 μM Biotin-LRRKtide peptide substrate and ATP at Km in assay buffer) is added to each well. Plates are then incubated for a further 1-2 hours at room temperature (incubation time varies depending upon rate and linearity of reaction with differing enzyme batches). d) 6 μl detection solution (50 nM Streptavidin SureLight® APC (PerkinElmer), 4 nM Eu-W1024 labelled anti-rabbit IgG antibody (PerkinElmer), 1:500 dilution (dilution determined on a batch to batch basis) of Phospho-Ezrin (Thr567)/Radixin (Thr564)/Moesin (Thr558) Polyclonal Antibody (New England Biolabs) and 60 mM EDTA in buffer: 40 mM Hepes (pH 7.2), 150 mM NaCl, 0.03% BSA) is added to each well. Plates are then incubated for a further 2 hours at room temperature before reading on a suitable plate reader (Excitation 330 nm, emission 620 nm (Eu) and 665 nm (APC)). Data is analysed using ActivityBase software (IDBS). LRRK2 AlphaScreen Desensitised Protein Substrate Assay a) 100 nl of a 1:4 serial dilution of test compound with a top final assay concentration of 30 μM is added to certain wells in a low volume 384 well black plate. 100 nl of DMSO is used in certain wells as controls. b) 3 μl enzyme solution (80 nM purified recombinant 6His-Tev-LRRK2 (1326-2527) in assay buffer: 50 mM Hepes (pH 7.2), 10 mM MgCl2, 150 mM NaCl, 5% glycerol, 0.0025% triton X-100 and 1 mM DTT) is added to certain wells. 3 μl assay buffer is added to certain wells as a 100% inhibition (no enzyme) control. c) After incubation at room temperature for 30 minutes, 3 μl substrate solution (200 nM GST-PS-Moesin (400-577) and 2 mM ATP in assay buffer) is added to each well. Plates are then incubated for 20 minutes at room temperature. d) 6 μl detection solution (1:250 dilution of AlphaLisa Protein A Acceptor beads (PerkinElmer), 1:64 dilution of AlphaLisa Gluthathione Donor beads (PerkinElmer) and 1:600 dilution (dilution determined on a batch to batch basis) of Phospho-Ezrin (Thr567)/Radixin (Thr564)/Moesin (Thr558) Polyclonal Antibody (New England Biolabs) in a buffer: 50 mM Hepes (pH 7.5), 250 mM NaCl, 60 mM EDTA, 1% PEG and 0.01% Brij 35) is added to each well. Plates are then incubated for a further 2 hours at room temperature in the dark before reading on an EnVision™ plate reader with AlphaScreen HTS turbo option module and AlphaScreen settings. Data is analysed using ActivityBase software (IDBS). Pharmacological Data

[2] = target: T1, 6His-Tev-LRRK2 (1326-2527); assay: LRRK2 peptide substrate assay; format: biochemical; conditions: mean pIC50 of multiple test results
Method: as §1
LRRK2 Peptide Substrate Assay
a) 100 nl of a 1:4 serial dilution of test compound with a top final assay concentration of 30 μM is added to certain wells in a low volume 384 well black plate. 100 nl of DMSO is used in certain wells as controls.
as §2

[3] = stated as threshold, read-out: pIC50 in the LRRK2 alphascreen desensitised protein substrate assay (bounds) (converted)
[4] = stated as threshold, read-out: pIC50 in the LRRK2 peptide substrate assay (bounds) (converted)
[5] = GST-PS-Moesin (400-577) substrate, 2 mM ATP, read-out: LRRK2 alphascreen desensitized protein substrate assay (pIC50) (converted)
[6] = Biotin-LRRKtide peptide substrate, ATP at Km, read-out: LRRK2 peptide substrate assay (pIC50) (converted)

| Compound | IC50 [1, 3] [nM] | IC50 [2, 4] [nM] | IC50 [1, 5] [nM] | IC50 [2, 6] [nM] |
| --- | --- | --- | --- | --- |
| O=C(Nc1cccnc1)c1cc(C(F)(F)F)c(CN2CCCCC2)cc1OCc1ccccc1 [Example 35, 2-[(Phenylmethyl)oxy]-4-(1-piperidinylmethyl)-N-3-pyridinyl-5-(trifluoromethyl)benzamide] | ≤ 25100 | ≤ 1260 |  |  |
| Cc1cc(OCc2ccccc2)c(C(=O)Nc2ccnnc2)cc1-c1cnn(C)c1 [Example 8, 4-Methyl-5-(1-methyl-1H-pyrazol-4-yl)-2-[(phenylmethyl)oxy]-N-4-pyridazinylbenzamide] | ≤ 25100 | ≤ 100 |  |  |
| Cc1nocc1NC(=O)c1cc(Cl)c(C(=O)N2CCC(F)(F)C2)cc1OCc1ccccc1 [Example 43, 5-Chloro-4-[(3,3-difluoro-1-pyrrolidinyl)carbonyl]-N-(3-methyl-4-isoxazolyl)-2-[(phenylmethyl)oxy]benzamide] | ≤ 25100 | ≤ 100 |  |  |
| CN1CCN(C(=O)c2cc(OCc3ccccc3)c(C(=O)Nc3cccnn3)cc2Cl)CC1 [Example 56, 2-(benzyloxy)-5-chloro-4-(4-methylpiperazine-1-carbonyl)-N-(pyridazin-3-yl)benzamide] | ≤ 25100 | ≤ 100 |  |  |
| O=C(Nc1cccnc1)c1cc(Br)c(CN2CCOCC2)cc1OCc1ccccc1 [Example 2, 5-Bromo-4-(4-morpholinylmethyl)-2-[(phenylmethyl)oxy]-N-3-pyridinylbenzamide] | ≤ 316 | ≤ 10 | 251 | 10 |
| Cc1nocc1NC(=O)c1cc(-c2cnn(C)c2)c(C(=O)N2CCOCC2)cc1OCc1ccccc1 [Example 25, N-(3-Methyl-4-isoxazolyl)-5-(1-methyl-1H-pyrazol-4-yl)-4-(4-morpholinylcarbonyl)-2-[(phenylmethyl)oxy]benzamide] | ≤ 25100 | ≤ 100 |  |  |
| O=C(Nc1cccc(F)c1)c1cc(C(F)(F)F)c(CN2CCOCC2)cc1OCc1ccccc1 [Example 53, 2-(Benzyloxy)-N-(3-fluorophenyl)-4-(morpholinomethyl)-5-(trifluoromethyl)benzamide] | > 25100 | ≤ 10 |  |  |
| Cn1cc(-c2cc(C(=O)Nc3ccnnc3)c(OCc3ccccc3)cc2C(=O)N2CCOCC2)cn1 [Example 24, 5-(1-Methyl-1H-pyrazol-4-yl)-4-(4-morpholinylcarbonyl)-2-[(phenylmethyl)oxy]-N-4-pyridazinylbenzamide] | ≤ 25100 | ≤ 1260 |  |  |
| Cc1cc(C(=O)Nc2cccnc2)c(OCc2ccccc2)cc1-c1cnn(C)c1 [Example 11, 5-Methyl-4-(1-methyl-1H-pyrazol-4-yl)-2-[(phenylmethyl)oxy]-N-3-pyridinylbenzamide] | ≤ 316 | ≤ 10 | 50.1 | 7.94 |
| O=C(Nc1ccnnc1)c1cc(C(F)(F)F)c(C(=O)N2CCCCC2)cc1OCc1ccccc1 [Example 40, 2-[(Phenylmethyl)oxy]-4-(1-piperidinylcarbonyl)-N-4-pyridazinyl-5-(trifluoromethyl)benzamide] | ≤ 25100 | ≤ 1260 |  |  |
| O=C(Nc1cccnc1)c1cc(Cl)c(C(=O)N2CCC(F)(F)C2)cc1OCc1ccccc1 [Example 41, 5-Chloro-4-[(3,3-difluoro-1-pyrrolidinyl)carbonyl]-2-[(phenylmethyl)oxy]-N-3-pyridinylbenzamide] | ≤ 316 | ≤ 100 |  |  |
| Cc1cc(OCc2ccccc2)c(C(=O)Nc2ccnnc2)cc1Br [Example 5, 5-Bromo-4-methyl-2-[(phenylmethyl)oxy]-N-4-pyridazinyl benzamide] | ≤ 316 | ≤ 10 |  |  |
| Cc1cc(C(=O)Nc2cccnc2)c(OCc2ccccc2)cc1Br [Example 9, 4-Bromo-5-methyl-2-[(phenylmethyl)oxy]-N-3-pyridinylbenzamide] | ≤ 316 | ≤ 10 | 126 | 10 |
| CN(C)C(=O)c1cc(OCc2ccccc2)c(C(=O)Nc2cccnc2)cc1-c1cnn(C)c1 [Example 32] | ≤ 316 | ≤ 100 | 200 | 50.1 |
| O=C(Nc1ccnnc1)c1cc(C(F)(F)F)c(CN2CCOCC2)cc1OCc1ccccc1 [Example 34, 4-(4-Morpholinylmethyl)-2-[(phenylmethyl)oxy]-N-4-pyridazinyl-5-(trifluoromethyl)benzamide] | ≤ 25100 | ≤ 1260 |  |  |
| CN1CCN(C(=O)c2cc(OCc3ccccc3)c(C(=O)Nc3ccnnc3)cc2Cl)CC1 [Example 55, 2-(benzyloxy)-5-chloro-4-(4-methylpiperazine-1-carbonyl)-N-(pyridazin-4-yl)benzamide] | ≤ 316 | ≤ 100 |  |  |
| O=C(Nc1ccnnc1)c1cc(Cl)c(C(=O)N2CCC(F)(F)C2)cc1OCc1ccccc1 [Example 42, 5-Chloro-4-[(3,3-difluoro-1-pyrrolidinyl)carbonyl]-2-[(phenylmethyl)oxy]-N-4-pyridazinylbenzamide] | ≤ 25100 | ≤ 100 | 501 | 50.1 |
